From patent US20260356879A1, “CELASTROL DERIVATIVES” (Celloram Inc., priority 2022, published 2026)
pIC50: −log10 of the molar value. Where two headings read alike, the source gives them in different places. Blank lines part the entries; values can stand above or below the compound they belong to.

What was measured:
NF-kB = NF-kB luciferase reporter assay (HepG2 NF-kB-Luc reporter cells, IL-1β stimulated); format: cell-based, human; settings: for pIC50: Homo sapiens; for % IC50 relative to Celastrol: relative to celastrol (compound 1)
Description: HepG2 NF-kB-Luc reporter cells stimulated with IL-1β (20 ng/ml) and the relative NF-kB luciferase activity (RLU) was determined for each of celastrol (compound 1) and each of the exemplary derivative compounds at the following eight point concentrations: 10 μM, 5 μM, 2.5 μM, 1.25 μM, 0.63 μM, 0.31 μM, 0.16 μM, 0.016 μM, and 0 μM). Assay values were plotted (not shown) and IC50 inhibitory concentrations were calculated after normalization using Prizm 9.0 software.
This example illustrates a study of the anti-inflammatory potential of an exemplary celastrol derivative of the present disclosure (compound 22) using an NF-κB luciferase promoter reporter gene assay in the human liver cancer cell line, HepG2.
NF-kB luciferase reporter assay: The celastrol derivative, compound 22 (prepared as described in Example 13) and the parent molecule, compound 1 (celastrol), were freshly dissolved in DMSO. HepG2 NF-κB reporter cells were seeded (2.5×10^4/well) in 96-well plate and then pre-treated with either compound 22 or compound 1 at the 8-point concentrations of 10, 5, 2.5, 1.25, 0.63, 0.31, 0.16, 0.016, or 0 μM, respectively, and the NF-κB promoter was activated by adding IL-1β (20 ng/ml) to the cells. After 18 hours, the cells were harvested by adding the 1× passive cell lysis buffer (Promega) and followed by measurement of the relative NF-kB luciferase activity (RLU) using GloMax discover microplate reader (Promega). Inhibitory concentrations (IC50) after normalization using Prizm 9.0 software.

TNF-α secretion [1] = experiment: Secreted TNF-α in conditioned media of BMDC (ELISA), LPS+ATP or LPS+Nigericin; format: cell-based; settings: 63-500 nM, FIG. 2C
Description: FIG. 2A depicts western blot images showing the relative NLRP3 inflammasome activity of the compounds 22 (CLM-022) and 1 (CLM-001) by detecting the level of cellular ASC complex and the mature form of IL-1β (15 kDa) in a conditioned media of BMDCs treated with LPS (100 ng/ml) for 3 hours and then the compound at 50 nM, 100 nM, and 500 nM concentration for 30 min, followed by ATP or Nigericin. ASC monomer and β-Actin proteins were used as controls. FIG. 2B depict plots of results showing secreted IL-1β levels measured by ELISA using conditioned media of BMDC treated with the compound 22 or compound 1 at 63 nM, 125 nM, 250 nM, and 500 nM, under NLRP3 inflammasome activation induced either by LPS+ATP or LPS+Nigericin. FIG. 2C depict plots of results showing secreted TNF-α levels measured by ELISA using conditioned media of BMDC treated with the compound 22 or compound 1 at 63 nM, 125 nM, 250 nM, and 500 nM, under NLRP3 inflammasome activation induced either by LPS+ATP or LPS+Nigericin.
3. The secreted form of TNF-α, a NLRP3 inflammasome independent cytokine, induced by LPS+ATP or LPS+Nigericin were measured by ELISA assay using the conditioned media of BMDC treated with compound 1 (CLM-1) or compound 22 (CLM-022) at concentrations of 63, 125, 250, 500 nM under NLRP3 inflammasome activation induced either by LPS+ATP or LPS+Nigericin.

[2] = tested on: LPS-induced acute inflammation; experiment: LPS-induced septic shock mouse model, cytokine expression in serum (ELISA) and colonic mucosa (qPCR); format: in vivo; settings: 1 mg/kg i.p. 1 hour before LPS (25 mg/kg, i.p.), 4 hours post LPS, ELISA; FIG. 4A
Description: FIG. 4A, and FIG. 4B depict results showing that compound 22 (CLM-022) decreased the production of pro-inflammatory cytokines in the LPS-induced septic shock mouse model as described in Example 17. Compound 1 (CLM-001) and compound 22 (CLM-022) (1 mg/kg) injected intraperitoneally 1 hour prior to septic shock induction by administering sublethal dose of LPS (25 mg/kg, i.p.), mice were sacrificed 4 hours post LPS injection, and subjected to measurement of inflammatory cytokine expression. FIG. 4A depicts plot of data showing that the level of TNF-α decreased in the serum of compound 1 and compound 22 treated mice.
This example illustrates a study of the inhibitory function of an exemplary celastrol derivative of the present disclosure (compound 22) against LPS-induced acute inflammation in vivo, we set up LPS-induced septic shock mouse model (Yu et al., 2017) and detected the expression levels of inflammatory cytokines in colon.
Mice (n=3 per group) were administered intraperitoneally (i.p.) with control vehicle, compound 1 (1 mg/kg), or compound 22 (1 mg/kg). After 1 hour, mice were administered by i.p. injection a sublethal dose of LPS (25 mg/kg). Four hours later, the mice were subjected to blood collection and harvesting colonic mucosa by scraping colon. Cytokine expression was measured by conducting ELISA (Cat #900-T54, PeproTech) for TNF-α on blood serum samples and qPCR for the cytokines, IL-1 (TaqMan, Mm00434228), IL-6 (TaqMan, Mm00446190), TNF-α (TaqMan, 00443258), iNOS (TaqMan, 00440502), on colonic mucosa samples.

NLRP3 inflammasome [3] = experiment: IL-1β secretion in BMDMs, LPS + Nigericin; format: cell-based, mouse; settings: Mus musculus, BMDM, LPS (100 ng/ml) + Nigericin (10 μM), 0-10 μM, FIG. 5A, read-out: IC50 for inhibition of IL-1β secretion (normalized)
Description: (§1) This example illustrates a comparative study of CLM-022 and MCC950 in inhibiting NLRP3 inflammasome activity in mouse and human macrophages.
(§2) Bone marrow-derived macrophages (BMDMs) were treated with LPS (100 ng/ml) for 3 hours to induce the expression of inflammatory genes, including TNF-α, NLRP3, and pro-IL-1β. Subsequently, the BMDMs were treated with CLM-022 or MCC950 in a dose range of 0-10 μM for 30 minutes. Then, to fully activate NLRP3-dependent inflammasome activity and cytokine secretion, Nigericin (10 μM) was added to the BMDMs for an additional 30 minutes.

THP-1 cells [4] = experiment: LDH release (NLRP3 inflammasome-induced cytotoxicity) in THP-1 cells; format: cell-based, human; settings: THP-1, LPS and Nigericin, FIG. 7B
Excerpt: (§3) Pyroptosis, a pro-inflammatory form of cell death, is triggered by the activation of NLRP3 inflammasome components (GSDMD and Caspase-1), leading to the release of pro-inflammatory cytokines IL-1β and IL-18, as well as damage-associated molecular patterns (DAMPs). This process elicits a cascade of inflammatory responses, which can persist if dysregulated in affected tissues. Given the significant inhibitory potential of CLM-022 against NLRP3 inflammasome and IL-1β secretion, it was proposed that CLM-022 could effectively enhance cell viability by inhibiting pyroptosis in the context of inflammation and inflammasome activation. This example illustrates a comparative study of the abilities of CLM-022 and MCC950 to protect THP-1 cells from inflammasome-induced pyroptosis.
(§4) After LPS and Nigericin treatment, THP-1 cells were treated with either CLM-022 or MCC950 over a dosage range of 0 μM to 10 μM and cell viability was determined by impermeant live/dead staining dye and flow cytometric analysis. Additionally, NLRP3 inflammasome-induced cytotoxicity was investigated by measuring the level of LDH in the conditioned media after the CLM-022 and MCC950 treatments. Further, Western blotting of samples from the THP-1 cell viability assays was carried out to determine levels of the pyroptosis-mediating molecules, GSDMD and Caspase-1.

NLRP3 inflammasome [5] = experiment: IL-1β secretion in THP-1 macrophages, LPS + Nigericin; format: cell-based; settings: human THP-1 macrophages, LPS (100 ng/ml) + Nigericin (10 μM), 0-10 μM; FIG. 5C; read-out: IC50 for inhibition of IL-1β secretion
Description: as §1
To confirm the inhibitory effect of CLM-022 in human macrophages, THP-1 cells, a human leukemia monocytic cell line, were differentiated into macrophages using phorbol 12-myristate-13-acetate (PMA, 100 ng/ml) treatment for one day. The THP-1 macrophages were then treated with LPS (100 ng/ml) for 3 hours to induce the expression of inflammatory genes. Subsequently, the THP-1 cells were treated with CLM-022 or MCC950 in a dose range of 0-10 μM for 30 minutes. Then, to fully activate NLRP3-dependent inflammasome activity, Nigericin (10 μM) was added to the THP-1 cells for an additional 60 min.

THP-1 cells [6] = experiment: THP-1 cell viability (inflammasome-induced pyroptosis), live/dead staining and flow cytometry; format: cell-based, human; settings: THP-1, LPS and Nigericin; FIG. 7A
Excerpt: as §3, §4

GSDMD and Caspase-1 = GSDMD and Caspase-1 cleavage in THP-1 cells (western blot); format: cell-based; settings: Homo sapiens; THP-1, western blot; FIG. 7C; read-out: concentration inhibiting GSDMD and Caspase-1 cleavage
Excerpt: as §3, §4

TNF-α secretion [7] = experiment: TNF-α secretion in BMDMs, LPS + Nigericin; format: cell-based, mouse; settings: FIG. 5B
Description: as §1, §2

[8] = HepG2 NF-kB-Luc reporter cells, IL-1β (20 ng/ml), Example 13, read-out: NF-kB IC50

SMILES: CC1=C(O)C(=O)C=C2C1=CC=C1[C@@]2(C)CC[C@@]2(C)[C@@H]3C[C@](C)(C(=O)O)CC[C@]3(C)CC[C@]12C [Compound 1, (2R,4aS,6aR,6aS,14aS,14bR)-10-hydroxy-2,4a,6a,6a,9,14a-hexamethyl-11-oxo-1,3,4,5,6,13,14,14b-octahydropicene-2-carboxylic acid, reference compound]
pIC50 (NF-kB; HepG2, IL-1β (20 ng/ml), 18 hours, normalized, Example 14, FIG. 1B, read-out: IC50 for NF-κB promoter activity): 6.28
pIC50 (NF-kB; [8]): 6.18
suppression of TNF-α secretion (TNF-α secretion [1]): no significant suppressive effect on TNF-α inflammatory cytokine secretion
level of TNF-α in serum [2]: decreased

pIC50 (NF-kB; [8]): 5.94
% IC50 relative to Celastrol (NF-kB): 115%
SMILES: CC1=C(O)C(=O)C=C2C1=CC=C1[C@@]2(C)CC[C@@]2(C)C3C[C@](C)(NC(=O)C(=O)N4CCN(C)CC4)CC[C@]3(C)CC[C@]12C (stereo partly drawn) [Compound 14, N-((2R,4aS,6aS,12bR,14aS)-10-hydroxy-2,4a,6a,9,12b,14a-hexamethyl-11-oxo-1,2,3,4,4a,5,6,6a,11,12b,13,14,14a,14b-tetradecahydropicen-2-yl)-2-(4-methylpiperazin-1-yl)-2-oxoacetamide]

pIC50 (NF-kB; [8]): 6.03
% IC50 relative to Celastrol (NF-kB): 93%
SMILES: CC1=C(O)C(=O)C=C2C1=CC=C1[C@@]2(C)CC[C@@]2(C)C3C[C@](C)(NC(=O)C(=O)N4CC5(COC5)C4)CC[C@]3(C)CC[C@]12C (stereo partly drawn) [Compound 15, N-((2R,4aS,6aS,12bR,14aS)-10-hydroxy-2,4a,6a,9,12b,14a-hexamethyl-11-oxo-1,2,3,4,4a,5,6,6a,11,12b,13,14,14a,14b-tetradecahydropicen-2-yl)-2-oxo-2-(2-oxa-6-azaspiro[3.3]heptan-6-yl)acetamide]

pIC50 (NF-kB; [8]): 5.94
% IC50 relative to Celastrol (NF-kB): 114%
SMILES: CC1=C(O)C(=O)C=C2C1=CC=C1[C@@]2(C)CC[C@@]2(C)C3C[C@](C)(N(C)C(=O)C(=O)N4CCN(C)CC4)CC[C@]3(C)CC[C@]12C (stereo partly drawn) [Compound 16, N-((2R,4aS,6aS,12bR,14aS)-10-hydroxy-2,4a,6a,9,12b,14a-hexamethyl-11-oxo-1,2,3,4,4a,5,6,6a,11,12b,13,14,14a,14b-tetradecahydropicen-2-yl)-N-methyl-2-(4-methylpiperazin-1-yl)-2-oxoacetamide]

pIC50 (NF-kB; [8]): 5.78
% IC50 relative to Celastrol (NF-kB): 163%
SMILES: CC1=C(O)C(=O)C=C2C1=CC=C1[C@@]2(C)CC[C@@]2(C)C3C[C@](C)(NC(=O)C(=O)NC4CN(C)C4)CC[C@]3(C)CC[C@]12C (stereo partly drawn) [Compound 17, N1-((2R,4aS,6aS,12bR,14aS)-10-hydroxy-2,4a,6a,9,12b,14a-hexamethyl-11-oxo-1,2,3,4,4a,5,6,6a,11,12b,13,14,14a,14b-tetradecahydropicen-2-yl)-N2-(1-methylazetidin-3-yl)oxalamide]

pIC50 (NLRP3 inflammasome [5]): 5.90
SMILES: CC(C)(O)c1coc(S(=O)(=O)NC(=O)Nc2c3c(cc4c2CCC4)CCC3)c1 [MCC950, reference compound]
pIC50 (NLRP3 inflammasome [3]): 7.15
pIC50 (THP-1 cells [4]; Homo sapiens, 0 μM to 10 μM, read-out: IC50 for LDH release (normalized)): 6.91
inhibition of LDH release (THP-1 cells [4]): significantly inhibited release of LDH
cell viability (in words) (THP-1 cells [6]): A similar effect
minimal effective concentration (GSDMD and Caspase-1): 1 µM
suppression of TNF-α secretion (TNF-α secretion [7]): neither CLM-022 nor MCC950 suppressed TNF-α secretion
